Marks after values point to notes of the source that are not given here.
Legend:
[1] = tested on: rabbit corneal wound model; experiment: Corneal wound healing promotion action 2 (in vivo), wound of approximately 8 mm; settings: 0.3% eye drop, 25 μl instillation
Protocol: Using the same method as (2) above, corneal epithelial abrasion was induced in a Japanese white rabbit to produce a wound of approximately 8 mm in diameter in the cornea. The wound area was measured using the fluorescein-stained area as an index to examine the effects on corneal wound healing.
The eye drops containing the respective concentrations of the test compound were instilled (25 μl at a time) at 0, 6, 12, 18, 24, 30, 36, 42, 48, and 54 hours after induction corneal epithelial abrasion. In measuring the wound area, fluorescein staining was carried out and a photograph of the cornea was measured. The fluorescein-stained area of the photographed cornea was computed using an image analysis processing system.
(§1) In Tables 3 and 4, the respective values indicate the mean value±standard deviation (n=6). Statistical analysis was carried out using Dunnett's multiple comparison with respect to physiological saline with the area of the corneal wound portion immediately after (0 hours after) corneal epithelial abrasion being set to 100% (*p<0.05, **p<0.01; vs. control).

[2] = tested on: rabbit corneal wound model; experiment: Corneal wound healing promotion action 1 (in vivo), wound of approximately 6 mm; settings: 5 μM eye drop, 30 μl instillation
Protocol: Using a male Japanese white rabbit, a wound of approximately 6 mm in diameter was produced in the cornea by inducing corneal epithelial abrasion in accordance with the method of Cintron et al. (Ophthalmic Res., 11, pp. 90-96 (1979)). The wound area was measured using the fluorescein-stained area as an index. The effects of the test compound on corneal wound healing were examined.
The eye drops containing the respective concentrations of the test compound were instilled (30 μl at a time) at 0, 3, 6, 9, 12, 18, 24, 27, 30, 33, 36, 42, and 48 hours after inducing corneal epithelial abrasion. In measuring the wound area, fluorescein staining was carried out and a photograph of the cornea was measured. The fluorescein-stained area of the photographed cornea was computed using an image analysis processing system.
as §1, with “1” for “3”, “2,” for “4,”, “PBS” for “physiological saline”

| Substance | Healing ratio (%) ([1]; 0 hr (baseline)) | Healing ratio (%) ([1]; 12 hr) | Healing ratio (%) ([1]; 18 hr) | Healing ratio (%) ([1]; 24 hr) | Healing ratio (%) ([1]; 30 hr) | Healing ratio (%) ([2]; 0 hr (baseline)) | Healing ratio (%) ([2]; 6 hr) | Healing ratio (%) ([2]; 12 hr) | Healing ratio (%) ([2]; 24 hr) | Healing ratio (%) ([2]; 36 hr) | Healing ratio (%) ([2]; 48 hr) |
| --- | --- | --- | --- | --- | --- | --- | --- | --- | --- | --- | --- |
| hyaluronic acid | 0 | 13.98 ± 4.88* % | 28.45 ± 3.37* % | 60.78 ± 8.07** % | 60.78 ± 8.07* % |  |  |  |  |  |  |
| EGF: polypeptide with a molecular weight of 6000, mitosis-promoting growth factor for corneal epithelium |  |  |  |  |  | 0 | 14.49 ± 3.42** % | 31.63 ± 1.29** % | 70.78 ± 6.91** % | 96.41 ± 3.97* % | 99.58 ± 1.03 |
